Test results published in US20250026796A1 (priority 2022, published 2025).
Where no end group is shown, it is not given here.

How the values were obtained:
[1] = mouse, in vivo
[2] = mouse
SARS-CoV-2 E (2E) [3] = target: T1, SARS-CoV-2 E (2E) (Severe acute respiratory syndrome coronavirus 2, UniProt P0DTC4); type: cell-based
HCoV-NL63 E protein [4] = target: T2, HCoV-NL63 E protein (Human coronavirus NL63, UniProt Q6Q1S0); type: cell-based; details: construct co-transfection, HEK 293T
HCoV-NL63 E protein [5] = target: T2, HCoV-NL63 E protein; type: cell-based; details: construct co-transfection, NIH 3T3
Protocol: (§1) For the imaging experiments in FIGS. 1a-1e and 7a-7f, NIH 3T3 cells were plated at a cell density of 2.5×10^5 cells/ml. The following day, the cells were transfected using Lipofectamine 3000 reagents (Thermo-Fisher, #L3000001). 4 μg of plasmid were mixed into 125 μL of serum-free OptiMEM with 5 μL of P3000 reagent. This was then added to another 125 μL of serum-free OptiMEM containing 7.5 μL of Lipofectamine 3000. Plasmid/P3000-lipofectamine complex was incubated for 15 minutes at room temperature, and then added to the plate. The medium was replaced 20-24 h after transfection, and 1 μM of Lysosensor Green DND-189 (Thermo-Fisher, L7535) was added. The cells were incubated for 30 minutes in a 37° C., 5% CO2 incubator. The medium was replaced one final time prior to imaging. The live cell imaging was conducted on a customized/automated fluorescence microscope (Ti—U, Nikon) using an environmental chamber (TOKAI) and the culture medium to maintain normal cell culture conditions (37° C., 5% CO2, 20% O2). […] Fluorescence quantification and analysis was performed with ImageJ software and Prism 7/8/9 (GraphPad). Representative images were also gathered on a Leica DMi8 confocal microscope. The following peptides (>95% purity) were synthesized by Thermo-Fisher/Pierce: […]

MERS-CoV E protein = MERS-CoV E protein (Middle East respiratory syndrome-related coronavirus, UniProt K9N5R3); type: cell-based
SARS-CoV-2 E (2E) [6] = target: T1, SARS-CoV-2 E (2E)
2E protein = 2E protein (Severe acute respiratory syndrome coronavirus 2, UniProt P0DTC4)
HCoV-HKU1 E protein = HCoV-HKU1 E protein (Human coronavirus HKU1, UniProt Q5MQC8); type: cell-based; details: construct co-transfection, NIH 3T3
Protocol: as §1

T1 sequence (P0DTC4 whole entry, looked up): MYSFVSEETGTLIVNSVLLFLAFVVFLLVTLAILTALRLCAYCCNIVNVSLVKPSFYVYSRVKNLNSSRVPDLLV
T2 sequence (Q6Q1S0 whole entry, looked up): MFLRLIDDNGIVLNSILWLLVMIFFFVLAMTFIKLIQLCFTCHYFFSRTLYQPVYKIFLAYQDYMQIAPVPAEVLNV
2E protein, sequence (P0DTC4 whole entry, looked up): as the sequence (P0DTC4 whole entry, looked up) above
MERS-CoV E protein, sequence (K9N5R3 whole entry, looked up): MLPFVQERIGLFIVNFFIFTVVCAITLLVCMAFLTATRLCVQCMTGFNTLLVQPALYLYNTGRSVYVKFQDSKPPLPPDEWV
HCoV-HKU1 E protein, sequence (Q5MQC8 whole entry, looked up): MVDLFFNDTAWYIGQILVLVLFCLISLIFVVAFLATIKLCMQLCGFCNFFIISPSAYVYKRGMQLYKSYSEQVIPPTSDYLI

Substance: GRKKRRQRRRPPQ-MYSFVSDDTGTLIVNSVL-L[C]AlexaFluo594 [TAT-MY18-2ED-Alexa Fluor 594]
- Penetration into cells (Vero-E6 cells): can penetrate into these cells
- Detection of fluorescent peptide in nasal tissues [1]: can permeate and is detectable in mouse nasal tissues
- Detection of fluorescent peptide in lung tissues ([1]; iv): can permeate and is detectable in mouse lung tissues
- Cell-penetrating "on" kinetics (NIH 3T3 cells): faster cell-penetrating than N-terminal version

Substance: GRKKRRQRRRPPQMYSFVSDDTGTLIVNSVL [iPep-SARS2-E]
- IC50 (SARS-CoV-2 WA1 virus; WA1 virus): ~200 nM
- Toxicity in vivo [2]: no obvious toxicity
- Body weight ([2]; in vivo): did not find that there are differences
- C5a (inflammation marker) ([2]; in vivo): did not find that there are differences
- Cxc112 (inflammation marker) ([2]; in vivo): did not find that there are differences

Substance: GRKKRRQRRRPPQMYSFVSEETGTLIVNSVL [TAT-MY18]
- Effect of synthetic peptide on 2E in DND-189-based pH imaging (SARS-CoV-2 E (2E) [3]): effective cell-penetrating peptide
- Relative fluorescent intensity of DND-189 dye compared to mock (SARS-CoV-2 E (2E) [3]): not different from mock

Substance: MFLRLIDDNGIVLNSILW [HCoV-NL63 MY18 WT]
- Relative NFAT-FLuc/TK-RLuc activity (effect of NL63-E) (HCoV-NL63 E protein [4]): could significantly reduce the effect of each E on NFAT/AP-1 reporter

Substance: MFLRLIEEDGIVLNSILW [HCoV-NL63 MY18 2DE & N9D]
- Relative NFAT-FLuc/TK-RLuc activity (effect of NL63-E) (HCoV-NL63 E protein [4]): effective to inhibit the cellular toxicity
- DND-189 fluorescence (proton homeostasis), HCoV-NL63 E (HCoV-NL63 E protein [5]): could significantly rescue the phenotypes in proton homeostasis

Substance: MLPFVQERIGLFIVNFFI [MERS-CoV MY18 WT]
- Relative NFAT-FLuc/TK-RLuc activity (effect of MERS-E) (MERS-CoV E protein): could significantly reduce the effect of each E on NFAT/AP-1 reporter

Substance: MYSFVSDDTGTLIVNSVL [MY18-2ED]
- Relative NFAT-FLuc/TK-RLuc activity (effect of 2E on NFAT/AP-1 pathway) (SARS-CoV-2 E (2E) [6]): significantly improves the inhibitory effect

Substance: MYSFVSEETGTLIVNSVL [MY18]
- Relative NFAT-FLuc/TK-RLuc activity (effect of 2E on NFAT/AP-1 pathway) (SARS-CoV-2 E (2E) [6]): significantly suppresses the effect of 2E on the NFAT/AP-1 pathway
- Inhibition of viral toxicity (cytopathic effect) (SARS-CoV-2 WA1 virus): moderate inhibitory effect on the virus
- Co-localization with 2E proteins (2E protein): co-localized with 2E proteins
- Effect of synthetic peptide on 2E in DND-189-based pH imaging (SARS-CoV-2 E (2E) [3]): does not have any effect on 2E

Substance: RQIKIWFQNRRMKWKKMYSFVSEETGTLIVNSVL [Pen-MY18]
- Relative fluorescent intensity of DND-189 dye compared to mock (SARS-CoV-2 E (2E) [3]): significantly lower than mock

Substance: RRRRRRMYSFVSEETGTLIVNSVL [6Arg-MY18]
- Relative fluorescent intensity of DND-189 dye compared to mock (SARS-CoV-2 E (2E) [3]): significantly lower than mock

Substance: VDLFFNETAWYIGQILV [HCoV-HKU1 MY18 D8E]
- DND-189 fluorescence (proton homeostasis), HCoV-HKU1 E (HCoV-HKU1 E protein): could significantly rescue the phenotypes in proton homeostasis
